Results on 8 molecules are retold here after ChEMBL document CHEMBL1156050, “Synthesis and evaluation of 9-aminoacridines derived from benzyne click chemistry” (Bioorg Med Chem Lett, 2009).

In one test the test system is HL-60. Briefly: Cytotoxicity against human HL60 cells. The class given is functional, cell-based.
Test [1] relates to Nucleic Acid. In words: Displacement of ethidium bromide from DNA by titration.
The subject of test [2] is Nucleic Acid. In words: Binding affinity to DNA. The class given is nucleic-acid assay.
Setting [3] is: Homo sapiens, HL-60, read-out: IC50.

With `CN1CCN(C(=O)c2ccc3c(NCCN=[N+]=[N-])c4ccccc4nc3c2)CC1`, the IC50 in the test on HL-60 (setting [3]) worked out at 45.7 µM. The C50 in the test on Nucleic Acid [1] is above 200 µM.

`CN(C)CCNC(=O)c1cccc2c(NCCn3nnc4ccccc43)c3ccccc3nc12` showed a log K with Nucleic Acid [2] of 6.14. The IC50 in the test with HL-60 (setting [3]) came to 23.4 µM. In the test with Nucleic Acid [1], this molecule had a C50 of 30 µM.

Regarding `CN1CCN(C(=O)c2cccc3c(NCCN=[N+]=[N-])c4ccccc4nc23)CC1`, the IC50 in the test on HL-60 (setting [3]) came to 52 µM. In the test with Nucleic Acid [1], this molecule returned a C50 above 200 µM.

`CN(C)CCNC(=O)c1cccc2c(NCCN=[N+]=[N-])c3ccccc3nc12` returned a log K in the test on Nucleic Acid [2] of 6.49. Moreover, the IC50 with HL-60 (setting [3]) came out at 0.72 µM. This molecule also yielded a C50 in the test on Nucleic Acid [1] of 13.6 µM.

Regarding `CN(C)CCNC(=O)c1ccc2c(NCCN=[N+]=[N-])c3ccccc3nc2c1`, the log K in the test on Nucleic Acid [2] is 6.37. In addition, the IC50 with HL-60 (setting [3]) was found to be 5.4 µM. In the test on Nucleic Acid [1], this molecule registered a C50 of 17.6 µM.

In the test with Nucleic Acid [2], `CN(C)CCNC(=O)c1ccc2c(NCCn3nnc4ccccc43)c3ccccc3nc2c1` returned a log K of 6.54. The IC50 in the test on HL-60 (setting [3]) was 262 µM. In addition, the C50 in the test on Nucleic Acid [1] stood at 12.1 µM.

Take `CN1CCN(C(=O)c2cccc3c(NCCn4nnc5ccccc54)c4ccccc4nc23)CC1`: the log K in the test on Nucleic Acid [2] was 5.65. The IC50 result in the test on HL-60 (hl-60) is given as “Not Active”. The molecule further returned a C50 in the test on Nucleic Acid [1] of 93.2 µM.

In the test with Nucleic Acid [2], `CN1CCN(C(=O)c2ccc3c(NCCn4nnc5ccccc54)c4ccccc4nc3c2)CC1` yielded a log K of 6.2. For the same molecule, the IC50 entry with HL-60 (hl-60) is “Not Active”. In the test on Nucleic Acid [1], this molecule yielded a C50 of 26.2 µM.

As usually defined, the IC50 is the concentration needed to halve the response being measured.
